Assays:
δ-opioid receptor [1] = biological target: T1, δ-opioid receptor (Mus musculus, UniProt P32300); assay: δ-opioid antagonist activity against DPDPE in mouse vas deferens (MVD); conditions: 20 min; for Ratio of IC50 Values: DPDPE IC50 with/without 100 nM test compound; for Kb: against DPDPE, test compound 100 nM, read-out: Ke
T1 construct: from tissue; host or cells: vas deferens of male ddy mice
Method: Using mouse vas deferens (MVD), the antagonist activity against DPDPE which is a δ-opioid agonist was checked.
(§1) In this experiment, ddy male mice were used. In a Magnus' tube which is filled with Krebes-Henseleit solution (NaCl […]; KCl 4.7 mM; CaCl2 2.5 mM; KH2 PO4 1.1 mM; NaHCO3 25 mM; glucose 11 mM) kept at 37° C., and into which an atmosphere consisting of 5% carbon dioxide and 95% oxygen was flown, vas deferens taken from the animals was suspended. Electric stimulation was applied through ring-shaped platinum electrodes mounted on the upper and lower portions of the tube at a frequency of 0.1 Hz and 5.0 mS duration. The contraction of the tissue was recorded on polygraph using isometric transducer.
(§2) Then 100 nM of the test compound was added. Twenty minutes later, DPDPE was begun to be added cumulatively. The ratio of IC50 values in the presence and absence of the test compound, Ke value (the molar concentration of the test compound necessary for translating the dose-effect curve to the curve of twice dose) and pA2 value were determined. The pA2 value was determined by the method of Shild et al (Shild, H. O., Br. J. Pharmac. Chamotehr., 4, 277 (1949)). That is, the logarithm of the test compound (log[test compound]) was plotted along the abscissa and the logarithm of the value obtained by subtracting 1 from the ratio of IC50 values was plotted in the presence and absence of the test compound [log(dose ratio-1)] along the ordinate. The pA2 value was determined from the value on the abscissa when the value on the ordinate of the obtained line is 0.

[2] = test system: Cerebral cortex nerve cells; assay: Brain cell-protecting action, MTT method; type: cell-based, rat; conditions: 10 μM; for brain cell-protecting action (in words): MTT; for Ratio of Absorbances: study group / control group, 570 nm, 3 days culture; for brain cell-protecting activity relative to nor-BNI (in words): vs nor-BNI
Method: The brain cell-protecting action was examined by MTT [3-(4,5-dimethylthiazol-2-yl)-2,5-diphenyltetrazolium bromide] method. MTT yields a dark blue formazan compound by mitochondria in living cells. This compound was dissolved in isopropanol and absorbance at 570 nm was measured, thereby measuring the number of living cells.
Cerebral cortex nerve cells of fetal rats of 17 days old were placed in wells of a 96-well plate at a population density of 1×10^5 cells/cm^2. Then 10 μM of a test compound was added and the cells were cultured in 200 μl of mixed medium of D-MEM/F.12 (1:1) for 3 days (37° C., 5%CO2). In a control group, the medium alone was added Then […] of MTT solution in PBS (6mg/ml) was added and the mixture was allowed to react for 3 hours (37° C., 5% CO2). After removing the culture medium, 100 μl of isopropanol was added and the absorbance was measured.
The ratio of the absorbances of the study group and the control group was employed as an index of brain cell-protecting action.

κ-opioid receptor = biological target: T2, κ-opioid receptor (Cavia porcellus, UniProt P41144); assay: κ-opioid antagonist activity against U-50488H in guinea pig ileum (GPI); conditions: 20 min; for Ratio of IC50 Values: U-50488H IC50 with/without 100 nM test compound; for Kb: against U-50488H, test compound 100 nM, read-out: Ke
T2 construct: from tissue; host or cells: ileum longitudinal muscle of male Hartley guinea pigs
T2 sequence (P41144 whole entry): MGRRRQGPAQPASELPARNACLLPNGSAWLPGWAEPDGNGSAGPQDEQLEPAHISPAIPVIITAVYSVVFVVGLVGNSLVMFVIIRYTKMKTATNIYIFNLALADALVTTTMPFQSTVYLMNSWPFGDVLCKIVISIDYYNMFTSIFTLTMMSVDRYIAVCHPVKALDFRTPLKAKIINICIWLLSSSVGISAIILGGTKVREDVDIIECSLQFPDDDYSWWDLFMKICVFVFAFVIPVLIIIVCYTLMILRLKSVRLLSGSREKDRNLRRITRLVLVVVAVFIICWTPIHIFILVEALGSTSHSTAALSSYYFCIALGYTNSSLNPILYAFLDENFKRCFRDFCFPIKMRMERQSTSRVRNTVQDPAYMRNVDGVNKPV
Method: Using guinea pig ileum (GPI), antagonist activities against U-50488H which is a κ-opioid agonist was determined.
Hartley male guinea pigs were used. After killing the guinea pigs by clubbing, ilea were taken. The inside of the ilea was washed with a nutrient liquid and only longitudinal muscles were peeled off. Using the thus obtained longitudinal muscles, the tests were carried out using the same apparatus as used in the experiment employing MVD.
First, U-50488H which is a κ-agonist was cumulatively added and IC50 value was determined. Thereafter, the muscle was well washed with the nutrient liquid. After the contraction reaction became stable, 100 nM of a test compound was added. From 20 minutes after, U-50488H was cumulatively added and the ratio of IC50 values, Ke value and pA2 value were determined in the same manner as in the experiment employing MVD.

δ-opioid receptor [3] = biological target: T1, δ-opioid receptor; assay: Change in δ-antagonist activity against DPDPE with time in mouse vas deferens (MVD); conditions: for Ratio of IC50 Values / Kb: 173 and NTI at 20 nM, 174 and 5'-NTII at 100 nM; for Kb: read-out: Ke; for change of antagonist activity with time (in words): 15 min to 1 hour; for activity at 1 hour relative to 5'-NTII: vs 5'-NTII
Method: as §1, §2
Using MVD, the antagonist activities of compounds 173 and 174 against DPDPE were determined. The ratio of IC50 values, Ke values and pA2 values at 15 minutes, 30 minutes and 1 hour from the addition of the test compounds were calculated. Since the concentrations of the test compounds are different, the reciprocals of Ke values were plotted in FIGS. 1 and 2.

[4] = test system: delayed type hypersensitivity; assay: Mouse Delayed Type Hypersensitivity Reaction Suppression Test-2 (donor spleen cells, subcutaneous administration); type: in vivo; conditions: C57BL/6 spleen cells; subcutaneous everyday from day of sensitization, totally 8 days; BALB/c
Text: BALB/c mice (male, 7 weeks old) were used, and each group consisted of 4-5 mice. Spleen cells (1×10^7 ) obtained from a donor mouse (C57BL/6) was subcutaneously administered to sensitize the mice. On Day 7 from the sensitization, the spleen cells (5×10^6) of the donor were subcutaneously administered on the right hing leg and spleen cells (5×10^6) obtained from a mouse of the same line as the recipient mice were subcutaneously administered on the left footpad. Twenty four hours later, the thicknesses of the right and left footpads were measured with a dial thickness gage, and the difference in thicknesses of the right and left footpads before the induction of the reaction and 24 hours after the induction of the reaction was employed as the index of the degree of the reaction.
The test compound was dissolved in 10% DMSO-water and was subcutaneously administered everyday from the day of sensitization to the day of induction of the reaction, totally 8 days. In the control group, 10% DMSO-water alone was administered in the same manner. The volume of administration was 10 ml/kg in both study groups and in the control group. Delayed Type Hypersensitivity Reaction=(thickness of right foodpad after induction-thickness of right footpad before induction)-(thickness of […] before induction) [formula]
wherein C means delayed type hypersensitivity reaction of the group to which the test compound was administered and D means the delayed type hypersensitivity reaction of the group to which vehicle was administered.

T1 sequence (P32300 whole entry): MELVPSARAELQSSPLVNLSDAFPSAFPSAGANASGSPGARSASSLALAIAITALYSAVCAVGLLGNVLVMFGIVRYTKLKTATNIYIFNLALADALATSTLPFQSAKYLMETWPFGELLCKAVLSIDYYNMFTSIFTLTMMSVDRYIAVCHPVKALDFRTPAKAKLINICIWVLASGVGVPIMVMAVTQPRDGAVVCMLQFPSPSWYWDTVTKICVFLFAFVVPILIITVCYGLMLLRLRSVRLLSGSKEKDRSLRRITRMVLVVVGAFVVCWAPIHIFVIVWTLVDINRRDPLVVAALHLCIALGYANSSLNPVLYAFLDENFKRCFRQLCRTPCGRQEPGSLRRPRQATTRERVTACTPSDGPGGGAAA

Row | SMILES | Ratio of IC50 Values (δ-opioid receptor [1]) | Kb (δ-opioid receptor [1]) [nM] | brain cell-protecting action (in words) [2] | Ratio of Absorbances [2] | Ratio of IC50 Values (κ-opioid receptor) | Kb (κ-opioid receptor) [nM] | other results
1 | CN(C)Cc1ccc2[nH]c3c(c2c1)C[C@@]1(O)[C@H]2Cc4ccc(O)c5c4[C@@]1(CCN2CC1CC1)[C@H]3O5 [Compound 10, 17-cyclopropylmethyl-6,7-didehydro-4,5α-epoxy-3,14β-dihydroxy-5'-(N,N-dimethylamino)methyl-6,7-2',3'-indolomorphinan] | 11.4 | 9.62 | Clear activities | 7.58 | 19.4 | 9.67 | 
2 | Oc1ccc2c3c1O[C@H]1c4[nH]c5cc(N=C=S)ccc5c4C[C@@]4(O)[C@@H](C2)N(CC2CC2)CC[C@]314 [Compound 174, 17-cyclopropylmethyl-6,7-didehydro-4,5α-epoxy-3,14β-dihydroxy-6'-isothiocyanato-6,7-2',3'-indolomorphinan] |  |  |  |  |  |  | Ratio of IC50 Values (δ-opioid receptor [3]; 15 min): 25.7; Kb (δ-opioid receptor [3]; 15 min): 4.05 nM; change of antagonist activity with time (in words) (δ-opioid receptor [3]): increased with time; Ratio of IC50 Values (δ-opioid receptor [3]; 30 min): 47.6; Kb (δ-opioid receptor [3]; 30 min): 2.15 nM; Ratio of IC50 Values (δ-opioid receptor [3]; 60 min): 58.6; Kb (δ-opioid receptor [3]; 60 min): 1.74 nM; activity at 1 hour relative to 5'-NTII (δ-opioid receptor [3]; 1 hour): about 7 times
3 | O=S(=O)(NCC1CC1)c1ccc2c3c([nH]c2c1)[C@@H]1Oc2c(O)ccc4c2[C@@]12CCN(CC1CC1)[C@H](C4)[C@]2(O)C3 [Compound 45, 17-cyclopropylmethyl-6,7-didehydro-4,5α-epoxy-3,14β-dihydroxy-6'-(N-cyclopropylmethylsulfamoyl)-6,7-2',3'-indolomorphinan] | 7.44 | 15.5 |  |  | 3.22 | 45.1 | 
4 | C[S+]([O-])c1cccc2c3c([nH]c12)[C@@H]1Oc2c(O)ccc4c2[C@@]12CCN(CC1CC1)[C@H](C4)[C@]2(O)C3 (single isomer, unassigned) [Compound 592, 17-cyclopropylmethyl-6,7-didehydro-4,5α-epoxy-3,14β-dihydroxy-7'-methylsulfinyl-6,7-2',3'-indolomorphinan] |  |  |  |  |  |  | % Suppression [4]: 20%
5 | O=C(NCC1CC1)c1ccc2c3c([nH]c2c1)[C@@H]1Oc2c(O)ccc4c2[C@@]12CCN(CC1CC1)[C@H](C4)[C@]2(O)C3 [Compound 47, 17-cyclopropylmethyl-6,7-didehydro-4,5α-epoxy-3,14β-dihydroxy-6'-(N-cyclopropylmethylcarbamoyl)-6,7-2',3'-indolomorphinan] | 13.0 | 8.33 |  |  | 3.11 | 47.4 | 
6 | CN(C)CCc1ccc2[nH]c3c(c2c1)C[C@@]1(O)[C@H]2Cc4ccc(O)c5c4[C@@]1(CCN2CC1CC1)[C@H]3O5 [Compound 9, 17-cyclopropylmethyl-6,7-didehydro-4,5α-epoxy-3,14-dihydroxy-5'-[2-(N,N-dimethylamino)ethyl]-6,7-2',3'-indolomorphinan] | 25.6 | 4.07 | Clear activities | 8.27 | 99.0 | 4.07 | brain cell-protecting activity relative to nor-BNI (in words) [2]: higher than that of nor-BNI
7 | O=C(NCC1CC1)c1ccc2[nH]c3c(c2c1)C[C@@]1(O)[C@H]2Cc4ccc(O)c5c4[C@@]1(CCN2CC1CC1)[C@H]3O5 [Compound 7, 17-cyclopropylmethyl-6,7-didehydro-4,5α-epoxy-3,14β-dihydroxy-5'-(N-cyclopropylmethylcarbamoyl)-6,7-2',3'-indolomorphinan] | 33.2 | 3.11 | Clear activities | 5.31 | 22.8 | 4.59 | 
8 | CCCOC(=O)c1ccc2c3c([nH]c2c1)[C@@H]1Oc2c(O)ccc4c2[C@@]12CCN(CC1CC1)[C@H](C4)[C@]2(O)C3 [Compound 393, 17-cyclopropylmethyl-6,7-didehydro-4,5α-epoxy-3,14β-dihydroxy-6'-propoxycarbonyl-6,7-2',3'-indolomorphinan] | 12.3 | 8.85 |  |  |  |  | % Suppression [4]: 33%
9 | C[S+]([O-])c1cccc2c3c([nH]c12)[C@@H]1Oc2c(O)ccc4c2[C@@]12CCN(CC1CC1)[C@H](C4)[C@]2(O)C3 (single isomer, unassigned) [Compound 591, 17-cyclopropylmethyl-6,7-didehydro-4,5α-epoxy-3,14β-dihydroxy-7'-methylsulfinyl-6,7-2',3'-indolomorphinan] |  |  |  |  |  |  | % Suppression [4]: 16%
10 | Oc1ccc2c3c1O[C@H]1c4[nH]c5ccc(CNCC6CC6)cc5c4C[C@@]4(O)[C@@H](C2)N(CC2CC2)CC[C@]314 [Compound 180, 17-cyclopropylmethyl-6,7-didehydro-4,5α-epoxy-3,14β-dihydroxy-5'-(N-cyclopropylmethylamino)methyl-6,7-2',3'-indolomorphinan] | 15.2 | 7.04 | Clear activities | 8.73 |  |  | brain cell-protecting activity relative to nor-BNI (in words) [2]: higher than that of nor-BNI
11 | Oc1ccc2c3c1O[C@H]1c4[nH]c5c(N=C=S)cccc5c4C[C@@]4(O)[C@@H](C2)N(CC2CC2)CC[C@]314 [Compound 173, 17-cyclopropylmethyl-6,7-didehydro-4,5α-epoxy-3,14β-dihydroxy-7'-isothiocyanato-6,7-2',3'-indolomorphinan] |  |  |  |  |  |  | Ratio of IC50 Values (δ-opioid receptor [3]; 15 min): 105; Kb (δ-opioid receptor [3]; 15 min): 0.19 nM; change of antagonist activity with time (in words) (δ-opioid receptor [3]): increased with time; Ratio of IC50 Values (δ-opioid receptor [3]; 30 min): 253; Kb (δ-opioid receptor [3]; 30 min): 0.08 nM; Ratio of IC50 Values (δ-opioid receptor [3]; 60 min): 306; Kb (δ-opioid receptor [3]; 60 min): 0.07 nM; activity at 1 hour relative to 5'-NTII (δ-opioid receptor [3]; 1 hour): about 170 times; activity at 1 hour relative to NTI (δ-opioid receptor [3]; 1 hour, vs NTI): about 3.5 times; activity relative to compound 174 (in words) (δ-opioid receptor [3]; vs compound 174): inferior to that of compound 174
